# Test results taken from patent US10314815B2, “Polymorph of granaticin B” (Sloan-Kettering Institute for Cancer Research, priority 2014, dated 2019).
# Experiments:
# Assay type in all cases: physicochemical
# [1] = Stability of crystalline Form A compared with amorphous Compound 1; conditions: crystalline Form A vs amorphous; traditional purification process
# Hygroscopicity of Form A = assay: Hygroscopicity of Form A
# [2] = UV-Vis pH-dependent colour change (bathochromic shift) of MSK-777; conditions: colour change red to blue, basic conditions; read-out: approximate averaged pKa values of the acidic phenol protons (inflection point of colour change)
# Source text: These absorptions indicate a benzoisochromanequinones (BIQ) chromophore. The broad adsorption in the visible region (around 527 nm) is responsible for the intense red color of the substance.
# Under basic conditions (pH>8) a bathochromic shift of Vis-absorption (ca. 40 nm) is observed, indicating ionization of slightly acidic phenolic protons. This pH dependent indicatory behavior is characteristic to the BIQ chromophore and is visually observed as the solution turns from red to blue.
# [3] = Chemical degradation under acidic conditions observed by HPLC; conditions: acidic conditions (pH<4), ambient temperature
# Source text: The degradation is caused by hydrolysis of the glycosidic bond, forming Granaticin A, the biosynthetic precursor of MSK-777. Consistently, in a time dependent HPLC experiment a simultaneous increase of Granaticin A chromatographic areas and decrease of Granaticin B areas is observed. The hydrolysis experiment and the almost identical UV spectra indicate that MSK-777 (Granaticin B) and Granatioin A share the same core structure and chromophore. Therefore the structural difference between Granaticin A and MSK-777 arises from a hydrolysable part (sugar moiety) of the latter compound.
SMILES,stability of solid form [1],hygroscopicity (Hygroscopicity of Form A),pKa [2],degradation (hydrolysis of the glycosidic bond forming Granaticin A) [3]
"CC1OC2CC(=O)OC2C2=C1C(=O)c1c(O)c3c(c(O)c1C2=O)C1CC(OC2CCC(O)C(C)O2)C3(O)C(C)O1 (centres unmarked) [Amorphous Compound 1, granaticin B]",less stable and prone to degradation,–,–,–
"CC1OC2CC(=O)OC2C2=C1C(=O)c1c(O)c3c(c(O)c1C2=O)C1CC(OC2CCC(O)C(C)O2)C3(O)C(C)O1 (centres unmarked) [Form A of Compound 1, granaticin B]",more stable than amorphous Compound 1,substantially non-hygroscopic,–,–
"CC1OC2CC(=O)OC2C2=C1C(=O)c1c(O)c3c(c(O)c1C2=O)C1CC(OC2CCC(O)C(C)O2)C3(O)C(C)O1 (centres unmarked) [MSK-777, granaticin B]",–,–,~8.5,slow degradation
